Where “and” joins values, the source holds several entries; their conditions need not be identical. Equal values may be shown once. Where a name gives a salt, the structure may show the parent alone.
Tests used:
[1] = tested on: ADP-induced AF488-Fibrinogen binding on platelets; assay: In vitro inhibition of ADP-induced AF488-Fibrinogen binding (nonspecific signal control); assay type: cell-based; settings: Mus musculus, Platelet, 0.25 h; 2 μM final concentration in diluted blood, 15 minutes at RT, 20 μM ADP; prior experiments
Procedure: (§1) This assay is particularly well adapted for reliable studies of the effect of P2Y12 antagonists on mouse platelets under in vitro and in vivo conditions. The assay allows to measure ADP-induced AF488-Fibrinogen binding on mouse platelets in only 6 μL whole blood and without washing steps.
(§2) The blood was first incubated with 4 μL vehicle or 4 μL Compound 1 hydrochloride (to give 2 μM final concentration in diluted blood) for 15 minutes at RT. This concentration of Compound 1 hydrochloride was determined in prior experiments to inhibit 100% of ADP-induced AF488-Fibrinogen binding on platelets and represents the nonspecific signal. Next, 10 μL of AF488-Fibrinogen (to give 0.5 mg/mL final concentration) were added followed by incubation of 5 minutes. To induce AF488-Fibrinogen binding, the platelets were then incubated with 10 μL ADP (to give 20 μM final concentration) for 5 minutes. In addition, an incubation with a platelet specific Allophycocyanin (APC) anti-Mouse CD61 (integrin beta 3) antibody (clone 2C9.G2) was performed for 10 minutes. The platelets were then fixed by addition of 34 μL cold paraformaldehyde solution (to give 0.1% final concentration) and stored at 4° C. for about 20 minutes. The samples were finally diluted with 1.8 mL cold PBS and put on hold at 4° C. for at least 2 hours, time necessary for gently red blood cell lysis, before measuring by flow cytometry.

[2] = tested on: ADP-induced AF488-Fibrinogen binding on mouse platelets; assay: AF488-Fibrinogen binding assay on whole blood after subcutaneous administration of P2Y12 receptor antagonists; assay type: in vivo, mouse (male Balb/c)
Text: In-Vivo Measurements of Time Dependent Platelet Inhibition after Subcutaneous Administration of P2Y12 Receptor Antagonists:
Male Balb/c mice were purchased from Charles River laboratories (Sulzfeld, Germany). All animals were maintained under identical conditions in accordance with the guidelines of the Basel-Landschaft cantonal veterinary office. Husbandry was accomplished in professional animal housing facilities, which provided group-cages, standard diet/water ad libitum, and standard illumination and climate conditions. The technical assistants performed at least one inspection per day. Sufficient time was provided for the animals to be accustomed to the experimental environment. Stress reduction was provided also by enrichment of cages, and providing the possibility to retire to dark housings (taking advantage of the color blindness of albino mice in the red range of the light spectrum). Inside the red housing the animals have the impression of being in the dark, while this housing remains visible to normal human vision.
Compound 1 hydrochloride, 0.2 mg/kg (respectively 5 mL/kg)
Elinogrel, 30 mg/kg (respectively 5 mL/kg)
Cangrelor, 0.2 mg/kg (respectively 5 mL/kg)
After an acclimatization period of at least 7 days, mice were anesthetized with Isoflurane (2-5%). The animals were then placed on a thermostatically-controlled heating table to maintain body temperature at 36-38° C. A polyurethane catheter (BTPU-027) was inserted into the right jugular vein and advanced into the vena cava for infusion of Heparin and to collect blood. […] Therefore Heparin (4000 U/kg/2.5 mL) was intravenously injected to prevent blood from coagulation.
Two minutes after the injection of Heparin, 60 μL of whole blood was collected via the vena cava catheter (baseline). […] 10, 20, 30, 40 and 60 minutes after the subcutaneous injection of the test compounds, 60 μL of whole blood were collected via the vena cava catheter for the fibrinogen binding assay.
as §1
as §2, with “Next,” for “The blood was first incubated with 4 μL vehicle or 4 μL Compound 1 hydrochloride (to give 2 μM final concentration in diluted blood) for 15 minutes at RT. This concentration of Compound 1 hydrochloride was determined in prior experiments to inhibit 100% of ADP-induced AF488-Fibrinogen binding on platelets and represents the nonspecific signal. Next,”
Flow cytometry was performed using a FACSCanto II instrument (BD Bioscience). The setting of fluorescence compensation was not required due to the use of two different lasers.
Platelets were first detected using the platelet specific fluorescence signal of APC-CD61 (APC-settings for fluorescence emission peak at 660 nm). The platelet population was then gated using forward-scatter (FSC) and side-scatter (SSC) and their FITC-labeled Fibrinogen signal (FITC-settings for fluorescence emission peak at 525 nm) was quantitated as Mean Fluorescence Intensity (MFI) of 5000 platelets. For each sample, the MFI from corresponding nonspecific sample was subtracted.

## CCCCOC(=O)N1CCN(C(=O)[C@H](CP(=O)(O)O)NC(=O)c2cc(N3CC[C@H](OC)C3)nc(-c3ccccc3)n2)CC1 [Compound 1 hydrochloride, ((R)-3-(4-(butoxycarbonyl)piperazin-1-yl)-2-(6-((S)-3-methoxypyrrolidin-1-yl)-2-phenylpyrimidine-4-carboxamido)-3-oxopropyl)phosphonic acid hydrochloride]
[1]
  inhibition at 2 µM: 100%

## CNc1cc2[nH]c(=O)n(-c3ccc(NC(=O)NS(=O)(=O)c4ccc(Cl)s4)cc3)c(=O)c2cc1F [Elinogrel]
[2]; 30 mg/kg s.c., 10 min after injection
  Mean Fluorescence Intensities of AF488-Fibrinogen binding to platelets: 4403 MFI and 4712 MFI and 3842 MFI and 3840 MFI
[2]; 30 mg/kg s.c., 20 min after injection
  Mean Fluorescence Intensities of AF488-Fibrinogen binding to platelets: 2374 MFI and 3847 MFI and 2177 MFI and 4078 MFI
[2]; 30 mg/kg s.c., 40 min after injection
  Mean Fluorescence Intensities of AF488-Fibrinogen binding to platelets: 1644 MFI and 1768 MFI and 1652 MFI and 2619 MFI
[2]; 30 mg/kg s.c., 60 min after injection
  Mean Fluorescence Intensities of AF488-Fibrinogen binding to platelets: 2034 MFI and 1503 MFI and 1515 MFI and 2191 MFI
[2]; 30 mg/kg s.c., time 0 min (baseline, before injection)
  Mean Fluorescence Intensities of AF488-Fibrinogen binding to platelets: 8124 MFI and 5370 MFI and 7045 MFI and 7097 MFI

## CSCCNc1nc(SCCC(F)(F)F)nc2c1ncn2[C@@H]1O[C@H](COP(=O)(O)OP(=O)(O)C(Cl)(Cl)P(=O)(O)O)[C@@H](O)[C@H]1O [Cangrelor]
[2]; 0.2 mg/kg s.c., 10 min after injection
  Mean Fluorescence Intensities of AF488-Fibrinogen binding to platelets: 1596 MFI and 1628 MFI and 2550 MFI
[2]; 0.2 mg/kg s.c., 20 min after injection
  Mean Fluorescence Intensities of AF488-Fibrinogen binding to platelets: 713 MFI and 1364 MFI and 1012 MFI
[2]; 0.2 mg/kg s.c., 40 min after injection
  Mean Fluorescence Intensities of AF488-Fibrinogen binding to platelets: 765 MFI and 732 MFI and 921 MFI
[2]; 0.2 mg/kg s.c., 60 min after injection
  Mean Fluorescence Intensities of AF488-Fibrinogen binding to platelets: 1048 MFI and 682 MFI and 961 MFI
[2]; 0.2 mg/kg s.c., time 0 min (baseline, before injection)
  Mean Fluorescence Intensities of AF488-Fibrinogen binding to platelets: 6200 MFI and 7453 MFI and 5476 MFI

— US11179390B2, “Subcutaneous administration of a P2Y12 receptor antagonist” (Idorsia Pharmaceuticals Ltd, priority 2017, dated 2021)
